One assay has as its system ACTH release. The experiment in a line: In vivo duration of lowering ACTH release after iv injection, against the Standard. On the set-up: species or system rats.
In assay [1] the test system is TRF-stimulated secretion of TSH and prolactin. Briefly: Specificity: TRF-stimulated secretion of TSH and prolactin. In kind it is cell-based. From the text: (§1) Compared to AHC(9-41), a potent CRF antagonist disclosed in U.S. Pat. No. 4,605,642, this peptide was more than 17 times as potent.
Assay [2] has as its system GnRH-stimulated secretion of LH and FSH. The experiment in a line: Specificity: GnRH-stimulated secretion of LH and FSH. It is filed as cell-based.
Excerpt: as §1

The test system of assay [3] is GRF-stimulated secretion of GH. The experiment in a line: Specificity: GRF-stimulated secretion of GH. In kind it is cell-based.
Excerpt: as §1

The test system of assay [4] is secretion of ACTH and β-endorphin-like (β-END-LI) immunoactivities. Briefly: hCRF stimulation of ACTH and β-END-LI secretion in vivo in rats. The method, then: Plasma levels of ACTH and β-END-LI are elevated for at least 5-20 minutes following the intraveneous administration of hCRF to nembutal-anesthesized male rats and to quiescent male or female rats with indwelling intravenous cannulae. […] These antagonists should counteract such effects.

Take AHC(9-41): the “duration of bioactivity (lowering ACTH release)” value with ACTH release (dosages of 0.5 mg, two runs) is listed as “about 40 minutes”. Besides, the “duration of effectiveness in lowering ACTH release” value in the assay on ACTH release (dose of 0.1 mg) is “no measurable effect”. The “effect on TRF-stimulated secretion of TSH and prolactin” value in assay [1] is given as “no effect”. Further, the “effect on GnRH-stimulated secretion of LH and FSH” value in assay [2] is on record as “no effect”. For the same compound, the “effect on GRF-stimulated secretion of GH” value in assay [3] is on record as “no effect”.

For the compound `CC[C@H](C)[C@H](NC(=O)[C@@H](NC(=O)[C@H](CCC(=O)O)NC(=O)[C@H](CCSC)NC(=O)[C@H](CC(C)C)NC(=O)[C@H](CCCCN)NC(=O)[C@H](CCCNC(=N)N)NC(=O)[C@H](CC(N)=O)NC(=O)[C@H](CO)NC(=O)[C@H](Cc1c[nH]cn1)NC(=O)[C@H](C)NC(=O)[C@H](CCC(N)=O)NC(=O)[C@H](CCC(N)=O)NC(=O)[C@H](C)NC(=O)[C@H](CC(C)C)NC(=O)[C@H](CCC(N)=O)NC(=O)[C@H](CCC(=O)O)NC(=O)[C@H](C)NC(=O)[C@H](CCCNC(=N)N)NC(=O)[C@H](C)NC(=O)[C@H](CCSC)NC(=O)[C@H](CCC(=O)O)NC(=O)[C@H](CC(C)C)NC(=O)[C@@H](NC(=O)[C@H](CCC(=O)O)NC(=O)[C@H](CCCNC(=N)N)NC(=O)[C@H](CC(C)C)NC(=O)[C@H](CC(C)C)NC(=O)[C@H](Cc1c[nH]cn1)NC(=O)[C@H](Cc1ccccc1)NC(=O)[C@@H](NC(=O)[C@H](CC(C)C)NC(=O)[C@H](CC(=O)O)NC(=O)[C@H](CC(C)C)NC(=O)[C@H](CO)NC(=O)[C@@H](NC(=O)[C@@H]1CCCN1C(=O)[C@@H]1CCCN1C(=O)[C@H](CCC(=O)O)NC(=O)[C@H](CCC(=O)O)NC(=O)[C@@H](N)CO)[C@@H](C)CC)[C@@H](C)O)C(C)C)[C@@H](C)CC)C(N)=O` [hCRF], the “time plasma levels of ACTH and β-END-LI are elevated” value in assay [4] (intravenous hCRF, nembutal-anesthetized male rats and quiescent cannulated male or female rats) lay within 5 to 20 min. Moreover, in assay [4] (several rat preparations), the “stimulation of secretion of ACTH and β-END-LI in vivo” value is recorded as “powerful stimulator”.

Source of the values: patent US5109111A, “CRF antagonists” (The Salk Institute for Biological Studies, priority 1990, dated 1992).
